Active and inactive are the calls of the source.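 How the source made its calls: active means inhibition of at least 30% at one or more tested concentrations; inactive means inhibition below 30% at every dose.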
experiment: antiviral protection against BTV-induced cell death – arbovirus, BSR cells, confirmation (AID 1250); conditions: BSR cells, Bluetongue virus CPE, ATP luminescence, 72 h; at 20 µM (top of the series)

Row | Compound | CPE inhibition
1 | CCCCOc1ccc(C(O)C(CN2CCCCC2)c2ccccc2)cc1 (stereo unspecified) | 12.5% (inactive)
2 | CCOC(=O)c1c(O)c2c(n(Cc3ccco3)c1=O)CCCC2 | 14.7% (inactive)
3 | COc1ccc(CCNCC(O)c2ccccc2)cc1 (stereo unspecified) | 13.7% (inactive)
4 | CCCC1=NN2C(=N)/C(=C\c3cc(C)n(-c4cccc(C)c4)c3C)C(=O)N=C2S1 | 24% (inactive)
5 | Cc1ccc(O)c(-c2cc(C(=O)Nc3ccc(S(=O)(=O)Nc4nc(C)cc(C)n4)cc3)[nH]n2)c1 | 21.8% (inactive)
6 | O=C(O)c1ccccc1Sc1c([N+](=O)[O-])cc(C(F)(F)F)cc1[N+](=O)[O-] | 9.2% (inactive)
7 | Cc1ccc(-c2csc(NC(=O)c3cccc(S(=O)(=O)N4CCN(C)CC4)c3)n2)cc1 | 5.05% (inactive)
8 | COC(=O)c1ccc(NC(=O)c2ccccc2NS(C)(=O)=O)cc1 | 22.4% (inactive)
9 | Cn1cc([N+](=O)[O-])c(C(=O)NCc2cc3cc(Cl)ccc3[nH]2)n1 | 9.85% (inactive)
10 | COc1ccc(C(=O)/C=C/c2ccc(OC)c(Cn3nnc4ccccc43)c2)cc1 | 15.8% (inactive)
11 | Nc1nc2ccccc2n1/N=C/c1ccc(-c2ccccc2)o1 | 12.9% (inactive)
12 | Cc1cccc(-n2c3nc(=O)[nH]c(=O)c-3cc3cc([N+](=O)[O-])ccc32)c1 | 16.1% (inactive)
13 | c1ccc(CSc2ccc(-c3cccnc3)nn2)nc1 | 0.68% (inactive)
14 | CCCc1cc2c(OC(=O)CC)c(-c3ccc(C(=O)OCC)o3)c(=O)oc2cc1OC | 19.6% (inactive)
15 | OCC1(CCOc2ccccc2)CCN(Cc2nc3ccc(F)cc3[nH]2)CC1 | 7.83% (inactive)
16 | COC(=O)Nc1ccc(S(=O)(=O)N2CCC(C(=O)N(C)C3CCCCC3)CC2)cc1 | 4.71% (inactive)
17 | Cc1nnc(SCC(=O)N2CCc3ccccc32)s1 | 3.29% (inactive)
18 | C/C(=N\NC(=O)c1ccccc1)c1nc2ccccc2n1C | -15.5% (inactive)
19 | CC1CC(C)CN(c2nc(NCc3ccco3)nc(N)c2[N+](=O)[O-])C1 (stereo unspecified) | 25.5% (inactive)
20 | O=C(N/N=C/c1c(O)n(CCc2ccccc2)c(=O)[nH]c1=O)c1ccncc1 | 7.83% (inactive)
21 | Cc1ccc(C(=O)N/C(=C\c2cccs2)C(=O)NCc2cccnc2)cc1 | 10.2% (inactive)
22 | Cc1ccc(C(CC(=O)O)Nc2nc(N3CCCCC3)nc(N3CCCCC3)n2)cc1 (stereo unspecified) | 9.28% (inactive)

Row | Compound | CPE inhibition
23 | COc1ccc(CCCc2nnc(SCc3nc4ccccc4c(=O)[nH]3)n2C)cc1 | 3.86% (inactive)
24 | C=CCOc1c(Br)cc(/C=N/Nc2ccc(C(=O)O)cc2)cc1OCC | 14.1% (inactive)
25 | Nc1c(-c2ccccc2)c(CSc2nc3ccccc3[nH]2)nn1-c1cccc(Cl)c1 | 23.8% (inactive)
26 | C/C(=N\NS(=O)(=O)c1ccccc1)c1cccc(NC(=O)c2cccc(Cl)c2)c1 | 15.9% (inactive)
27 | O=C1CC(=O)N(Cc2ccco2)C(=O)N1 | 2.11% (inactive)
28 | Cc1ccc(C(=O)O)cc1-c1ccc(/C=C2/NC(=O)N(c3ccccc3)C2=O)o1 | 19.9% (inactive)
29 | CC1CC(C)(C)CC2(C1)NC(=O)N(CC(=O)NCCc1c[nH]c3ccccc13)C2=O (stereo unspecified) | 23.6% (inactive)
30 | O=C(NC1=NCCS1)c1ccc(Cl)c(S(=O)(=O)N2CCCC2)c1 | 12.3% (inactive)
31 | COc1ccc(CN(C(=O)CSc2nnc(-c3ccc(F)cc3)o2)c2ccc(F)cc2)cc1 | 21.3% (inactive)
32 | Cc1nn(CC(=O)OCCOc2ccc(Br)cc2)c(C)c1[N+](=O)[O-] | 2.41% (inactive)
33 | N#Cc1c(-c2ccccc2)nc(SCC(=O)N(c2ccccc2)c2ccccc2)[nH]c1=O | 12.2% (inactive)
34 | CCc1ccc(N2CCN(C(=O)c3ccc(OC)c(OC)c3)CC2)cc1 | 7.4% (inactive)
35 | Cc1nn(C)cc1CN(C)Cc1ccc(OCC(O)CN2CCCCC2)cc1 (stereo unspecified) | 11.1% (inactive)
36 | Cc1ccc(OCCSCc2nnc(NC(=O)Nc3cccc(Cl)c3)s2)cc1 | 19.4% (inactive)
37 | COC(=O)c1ccccc1NC(=O)c1ccc(COc2ccc(C)c(C)c2)o1 | 27.6% (inactive)
38 | COc1ccccc1NC(=O)CN1CCC(n2c(C)nc3cc(F)ccc32)CC1 | 23.7% (inactive)
39 | O=[N+]([O-])c1ccc(NCCNCCOc2nonc2-c2ccccc2)c([N+](=O)[O-])c1 | 6.24% (inactive)
40 | O=[N+]([O-])c1ccc(-c2c(O)c3ccccc3c3nc4ccccc4nc23)cc1 | 25.8% (inactive)
41 | COc1ccc2[nH]c(=O)c(CN(CCCN(C)C)C(=O)Nc3ccc(F)cc3)cc2c1 | 7.66% (inactive)
42 | CCc1cccc(C)c1NC(=O)CN(C)Cc1ccc(Br)cc1 | 10.2% (inactive)
43 | O=C(Nc1nnc(SCc2ccc(F)cc2)s1)c1ccc2c(c1)C(=O)N(c1ccccc1Cl)C2=O | 20.2% (inactive)
44 | CC1=Nc2ccccc2/C1=C/c1c(N)n2c(S(=O)(=O)C(C)C)nsc2nc1=O | 19% (inactive)

Row | Compound | CPE inhibition
45 | Cc1cccc(/C(N)=N/OC(=O)COc2ccc(Cl)cc2)c1 | 5.92% (inactive)
46 | O=[N+]([O-])c1cccc(/C=N\N=C2c3ccccc3-c3ccccc32)c1O | 22.2% (inactive)
47 | O=C(Nc1nc2ccccc2s1)c1ccc(OCC2CCCO2)cc1 (stereo unspecified) | 5.66% (inactive)
48 | COc1ccc(OC)c(NC(=O)c2cc(-c3ccc(C)cc3O)n[nH]2)c1 | 9.4% (inactive)
49 | Cc1cc(/C=C2/C(=N)N3C(=NC2=O)SN=C3S(C)(=O)=O)c(C)n1-c1ccc(F)cc1 | 20.6% (inactive)
50 | O=C(CSc1nc2nn(-c3ccccc3)c(=O)c-2c2n1CCCCC2)NCCc1ccccc1 | 10.8% (inactive)
51 | COc1ccc(Cn2c(C)c(C)c(C#N)c2NC(=O)Nc2cccc(Cl)c2)cc1 | 10.6% (inactive)
52 | CCOc1cccc2sc(NN)nc12 | 14.3% (inactive)
53 | COc1cccc(C(=O)Nc2cccc(C(=O)NC3=NN(c4c(Cl)cc(Cl)cc4Cl)C(=O)C3)c2)c1 | 18.8% (inactive)
54 | c1coc(CNc2c3c(nc4ncnn24)CCCC3)c1 | 13.4% (inactive)
55 | COCCCNc1nc(-c2ccncc2)nc2ccccc12 | 7.45% (inactive)
56 | CS(=O)(=O)C1=NSC2=NC(=O)/C(=C\c3cccn3-c3ccccc3Cl)C(=N)N21 | 8.16% (inactive)
57 | O=C(O)c1ccccc1CSc1ccccn1 | 2.46% (inactive)
58 | N#Cc1ccccc1NC(=O)c1ccccc1OCC(=O)NCc1ccco1 | 6.97% (inactive)
59 | O=C1CC(c2cccc([N+](=O)[O-])c2)c2ccc3ccccc3c2N1 (stereo unspecified) | 8.81% (inactive)
60 | COC(=O)c1c(-c2ccccc2)csc1N1C(=O)Nc2ccccc2N1O | 10.9% (inactive)
61 | O=C(CSCc1ccccc1)Nc1cccc(C(=O)Nc2ccccc2C(=O)O)c1 | 9.16% (inactive)
62 | N#Cc1c(N2C(=O)Nc3ccccc3N2O)sc2c1CCCCCC2 | 19.9% (inactive)
63 | O=C(O)c1cccc(-n2cccc2/C=C2/NC(=O)N(c3ccc(Cl)cc3)C2=O)c1 | 10.4% (inactive)
64 | CCN=c1scc(C)n1/N=C/c1cc(Br)c(O)c(Br)c1 | -2.38% (inactive)
65 | Cc1ccc(NC(=O)/C(=C/C=C/c2ccccc2)NC(=O)c2ccccc2)cc1 | 19.4% (inactive)
66 | CCCCCNc1nc2ccccc2nc1NS(=O)(=O)c1cccs1 | 20.4% (inactive)

From PubChem BioAssay AID1250 (SRMLSC, 2008)
